Consider 21 compounds from BindingDB's records for doi:10.1021/jm0408316 (University of Genoa, 2005).

Counter-ions that a name gives are not always drawn. Where only a bound is given, the exact number is not on record here.

Target in one assay: not listed separately
In words: Inhibition of benzylamine binding to Benzylamine oxidase of porcine serum.
As for `CC(C)(C)Sc1cncc(SC(C)(C)C)c1CN`, the IC50 (as a rule, the midpoint of a concentration-inhibition curve) came out at 1.6 µM.

`CCSc1cncc(SCC)c1CN`: the IC50 worked out at 0.13 µM.

In the case of `NCc1c(OCCO)cncc1OCCO` [2-{[4-(aminomethyl)-5-(2-hydroxyethoxy)pyridin-3-yl]oxy}ethanol dihydrochloride trihydrate], the IC50 was 3.2 µM.

The compound `CNc1cncc(N(C)C)c1CN` [4-(aminomethyl)-5-(dimethyl-lambda~5~-azanyl)-N-methylpyridin-3-amine dihydrochloride dihydrate] displayed an IC50 of 0.44 µM.

Turning to `CCCNc1cncc(N(C)CCC)c1CN` [4-(aminomethyl)-5-[methyl(propyl)-lambda~5~-azanyl]-N-propylpyridin-3-amine dihydrochloride], the IC50 was determined as 350 µM.

Turning to `NCc1ccncc1N(C1CCCC1)C1CCCC1` [4-(aminomethyl)-N,N-dicyclopentylpyridin-3-amine dihydrochloride], the IC50 came to 100 µM.

In turn, `NCc1ccncc1NCC1CCCCC1` [4-(aminomethyl)-N-(cyclohexylmethyl)pyridin-3-amine dihydrochloride hydrate] gave an IC50 of 5.6 µM.

`NCc1ccncc1NC1CCCCCC1` [4-(aminomethyl)-N-cycloheptylpyridin-3-amine dihydrochloride hydrate] showed an IC50 of 79 µM.

For the compound `NCc1ccncc1NC1CCCC1` [4-(aminomethyl)-N-cyclopentylpyridin-3-amine dihydrochloride], the IC50 stood at 16 µM.

The compound `NCc1ccncc1NC1CC1` [4-(aminomethyl)-N-cyclopropylpyridin-3-amine dihydrochloride hydrate] displayed an IC50 above 100 µM.

Regarding `CCNc1cncc(N(C)CC)c1CN` [4-(aminomethyl)-N-ethyl-5-[ethyl(methyl)-lambda~5~-azanyl]pyridin-3-amine dihydrochloride], the IC50 was found to be 0.02 µM.

In turn, `CCNc1cnccc1CN` [4-(aminomethyl)-N-ethylpyridin-3-amine dihydrochloride] had an IC50 of 2 µM.

Compound `CC(C)Nc1cncc(N(C)C(C)C)c1CN` [4-(aminomethyl)-N-isopropyl-5-[isopropyl(methyl)-lambda~5~-azanyl]pyridin-3-amine dihydrochloride] returned an IC50 above 0.1 µM.

In turn, `CC(C)Nc1cnccc1CN` [4-(aminomethyl)-N-isopropylpyridin-3-amine dihydrochloride] came in with an IC50 of 100 µM.

For the compound `CNc1cncc(NC)c1CN` [4-(aminomethyl)-N-methyl-5-(methyl-lambda~5~-azanyl)pyridin-3-amine dihydrochloride], the IC50 came out at 1.7 µM.

Compound `CNc1cnccc1CN` [4-(aminomethyl)-N-methylpyridin-3-amine dihydrochloride] displayed an IC50 of 8 µM.

On to `NCc1ccncc1N` [4-(aminomethyl)pyridin-3-amine dihydrochloride], for which the IC50 is 16 µM.

Turning to `NCc1c(OCCCCO)cncc1OCCCCO` [4-{[4-(aminomethyl)-5-(4-hydroxybutoxy)pyridin-3-yl]oxy}butan-1-ol dihydrochloride], the IC50 was 0.15 µM.

In turn, `CCOc1cncc(OCC)c1CN` [(3,5-diethoxypyridin-4-yl)methylamine dihydrochloride] had an IC50 of 0.17 µM.

As to `CNc1ccccc1CN` [N-[2-(aminomethyl)phenyl]-N-methylamine dihydrochloride], the IC50 is above 100 µM.

The compound `CCOc1cncc(OCc2ccccc2)c1CN` [[3-(benzyloxy)-5-ethoxypyridin-4-yl]methylamine dihydrochloride] showed a half-inhibitory concentration (IC50) of 5 µM.

Another assay deals with Diamine oxidase (Sus scrofa). Kind of assay: Inhibition of putrescine binding to against Diamine oxidase of porcine kidney.
In the case of `CC(C)(C)Sc1cncc(SC(C)(C)C)c1CN`, the IC50 is above 1000 µM.

As for `CNc1cncc(N(C)C)c1CN` [4-(aminomethyl)-5-(dimethyl-lambda~5~-azanyl)-N-methylpyridin-3-amine dihydrochloride dihydrate], the IC50 amounted to 0.061 µM.

`CC(C)Nc1cncc(N(C)C(C)C)c1CN` [4-(aminomethyl)-N-isopropyl-5-[isopropyl(methyl)-lambda~5~-azanyl]pyridin-3-amine dihydrochloride] registered an IC50 of 1 µM.

`CNc1cncc(NC)c1CN` [4-(aminomethyl)-N-methyl-5-(methyl-lambda~5~-azanyl)pyridin-3-amine dihydrochloride] gave an IC50 of 0.12 µM.
